Source: the supplement of paper PMC11208160

Experiment: recombinant UMI read abundance after kanamycin selection (control-corrected) (log10(CPM+1)); higher = more efficient recombination; extreme values may be limits of the assay; sequences stand for … in AGTGCAGAGAAAATCGGCCAGTTTTCTCTGCCTGCAGTCCGCATGCCGTGGGACCCCTTGGGTTCTAACCTGTTGCCTAGATTTATGCAGCGGACTGCCTTTCTCCCAAAGTGATAAACCGG…AGGTTGGTTTCACT; site = the 11-nt donor
Method in brief: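 Two replicates each of selected and unselected plating were used in this pooled Escherichia coli screen of donor and donor-binding-loop pairs for the IS621 bridge recombinase. Selection was with IPTG (0.07 mM) and kanamycin. Counts of recombinant UMIs, amplified across the donor–target junction, were converted to CPM, averaged, scaled by control-derived factors and reported as log10(CPM+1).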
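Also: IS621 bridge recombinase in Escherichia coli cells against a fixed T5 target plasmid.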

Point of comparison: “CTAACCGCATGGACCGGTTTTCCCGGTAATCCGTATTTGTT (site CTAACCGCTAA)”, “recombinant UMI read abundance (log10)” value 1.6. Against it:
- CGTATTCCATGGACCGGTTTTCCCGGTAATCCGTATTTGTG (site CGTATTCCTCA) — lower, 0.0112
- CGTCACTCATGGACCGGTTTTCCCGGTAATCCGTATTTGGC (site CGTCACTCTGC) — higher, 2.8
- CGTCCAACATGGACCGGTTTTCCCGGTAATCCGTATTTGTA (site AGTCCAACTTA) — lower, 0.00336
- CGTCCAACATGGACCGGTTTTCCCGGTAATCCGTATTTGTA (site CGTCCAACTTA) — within 0.2 log units, 1.61
- CGTCCAACATGGACCGGTTTTCCCGGTAATCCGTATTTGTA (site GGTCCAACTTA) — lower, 0.0127
- CGTCCAACATGGACCGGTTTTCCCGGTAATCCGTATTTGTA (site TGTCCAACTTA) — lower, 0.0409
- CGTCTAGCATGGACCGGTTTTCCCGGTAATCCGTATTTGGC (site CGTCTAGCTGC) — higher, 2.07
- CGTCTCACATGGACCGGTTTTCCCGGTAATCCGTATTTGGT (site CGTCTCACTAC) — within 0.2 log units, 1.62
- CGTCTTACATGGACCGGTTTTCCCGGTAATCCGTATTTGTA (site CGTCTTACTTA) — lower, 0.00853
- CGTGGAACATGGACCGGTTTTCCCGGTAATCCGTATTTGCT (site CGTGGAACTAA) — lower, 0.202
- CGTGGAACATGGACCGGTTTTCCCGGTAATCCGTATTTGCT (site CGTGGAACTAC) — lower, 0.00778
- CGTGGAACATGGACCGGTTTTCCCGGTAATCCGTATTTGCT (site CGTGGAACTAG) — higher, 2.18
- CGTGGAACATGGACCGGTTTTCCCGGTAATCCGTATTTGCT (site CGTGGAACTAT) — lower, 0.45
- CGTGGAACATGGACCGGTTTTCCCGGTAATCCGTATTTGTA (site CGTGGAACTAA) — lower, 0.00446
- CGTGGAACATGGACCGGTTTTCCCGGTAATCCGTATTTGTA (site CGTGGAACTCA) — lower, 0.0215
- CGTGGAACATGGACCGGTTTTCCCGGTAATCCGTATTTGTA (site CGTGGAACTGA) — lower, 0
- CGTGGAACATGGACCGGTTTTCCCGGTAATCCGTATTTGTA (site CGTGGAACTTA) — higher, 2.24
- CGTGTTACATGGACCGGTTTTCCCGGTAATCCGTATTTGAT (site CGTGTTACTAT) — lower, 0.962
- CGTTAAACATGGACCGGTTTTCCCGGTAATCCGTATTTGAG (site CGTTAAACTCT) — lower, 1.31
- CGTTAAACATGGACCGGTTTTCCCGGTAATCCGTATTTGAG (site CGTTACACTCT) — lower, 0
- CGTTAAACATGGACCGGTTTTCCCGGTAATCCGTATTTGAG (site CGTTAGACTCT) — lower, 0.00692
- CGTTAAACATGGACCGGTTTTCCCGGTAATCCGTATTTGAG (site CGTTATACTCT) — lower, 0.01
- CGTTAGACATGGACCGGTTTTCCCGGTAATCCGTATTTGAA (site CGTTAGACTAT) — lower, 0.0102
- CGTTAGACATGGACCGGTTTTCCCGGTAATCCGTATTTGAA (site CGTTAGACTCT) — lower, 0.00762
- CGTTAGACATGGACCGGTTTTCCCGGTAATCCGTATTTGAA (site CGTTAGACTGT) — lower, 0
- CGTTAGACATGGACCGGTTTTCCCGGTAATCCGTATTTGAA (site CGTTAGACTTT) — lower, 1.33
- CGTTAGGCATGGACCGGTTTTCCCGGTAATCCGTATTTGCT (site CGTTAGGCTAG) — lower, 0.924
- CGTTAGGCATGGACCGGTTTTCCCGGTAATCCGTATTTGCT (site CGTTCGGCTAG) — lower, 0.00474
- CGTTAGGCATGGACCGGTTTTCCCGGTAATCCGTATTTGCT (site CGTTGGGCTAG) — lower, 0
- CGTTAGGCATGGACCGGTTTTCCCGGTAATCCGTATTTGCT (site CGTTTGGCTAG) — lower, 0.00436
- CGTTCGGCATGGACCGGTTTTCCCGGTAATCCGTATTTGTC (site CGTTCGGCTGA) — lower, 0
- CGTTGCACATGGACCGGTTTTCCCGGTAATCCGTATTTGGG (site CGTTGCACTCC) — lower, 0.0529
- CGTTGGACATGGACCGGTTTTCCCGGTAATCCGTATTTGAG (site CGTTAGACTCT) — lower, 0.878
- CGTTGGACATGGACCGGTTTTCCCGGTAATCCGTATTTGAG (site CGTTCGACTCT) — lower, 0.022
- CGTTGGACATGGACCGGTTTTCCCGGTAATCCGTATTTGAG (site CGTTGGACTCT) — lower, 1.36
- CGTTGGACATGGACCGGTTTTCCCGGTAATCCGTATTTGAG (site CGTTTGACTCT) — lower, 0.0464
- CGTTGTCCATGGACCGGTTTTCCCGGTAATCCGTATTTGCT (site CGTTGTCCTAG) — lower, 0.968
- CGTTGTTCATGGACCGGTTTTCCCGGTAATCCGTATTTGTA (site CGTTGTTCTTA) — higher, 2.19
- CGTTTGGCATGGACCGGTTTTCCCGGTAATCCGTATTTGAT (site CGTTTGGCTAA) — lower, 0.0113
- CGTTTGGCATGGACCGGTTTTCCCGGTAATCCGTATTTGAT (site CGTTTGGCTAC) — lower, 0.0714
- CGTTTGGCATGGACCGGTTTTCCCGGTAATCCGTATTTGAT (site CGTTTGGCTAG) — lower, 1.09
- CGTTTGGCATGGACCGGTTTTCCCGGTAATCCGTATTTGAT (site CGTTTGGCTAT) — higher, 2.22
- CTAAACTCATGGACCGGTTTTCCCGGTAATCCGTATTTGAA (site CTAAACTCTTT) — higher, 3.08
- CTAACCCCATGGACCGGTTTTCCCGGTAATCCGTATTTGTA (site CTAACCCCTTA) — within 0.2 log units, 1.67
- CTAACTTCATGGACCGGTTTTCCCGGTAATCCGTATTTGCA (site CTAACTTCTTG) — higher, 2.08
- CTAAGGGCATGGACCGGTTTTCCCGGTAATCCGTATTTGAT (site CTAAGGGCTAT) — higher, 2.15
- CTAATATCATGGACCGGTTTTCCCGGTAATCCGTATTTGAC (site CTAATATCTGT) — higher, 2.69
- CTAATATCATGGACCGGTTTTCCCGGTAATCCGTATTTGAC (site CTACTATCTGT) — lower, 0
- CTAATATCATGGACCGGTTTTCCCGGTAATCCGTATTTGAC (site CTAGTATCTGT) — higher, 2.29
- CTAATATCATGGACCGGTTTTCCCGGTAATCCGTATTTGAC (site CTATTATCTGT) — lower, 1.3
- CTAATATCATGGACCGGTTTTCCCGGTAATCCGTATTTGAG (site CTAATATCTCT) — higher, 3.07
- CTAATATCATGGACCGGTTTTCCCGGTAATCCGTATTTGAG (site CTAGTATCTGT) — lower, 0
- CTAATGACATGGACCGGTTTTCCCGGTAATCCGTATTTGAT (site CTAATGACTAT) — within 0.2 log units, 1.69
- CTAATGACATGGACCGGTTTTCCCGGTAATCCGTATTTGCA (site CTAATGACTTG) — higher, 2.01
- CTACCAACATGGACCGGTTTTCCCGGTAATCCGTATTTGGA (site CTACAAACTTC) — lower, 0
- CTACCAACATGGACCGGTTTTCCCGGTAATCCGTATTTGGA (site CTACCAACTTC) — lower, 0.959
- CTACCAACATGGACCGGTTTTCCCGGTAATCCGTATTTGGA (site CTACGAACTTC) — lower, 0
- CTACCAACATGGACCGGTTTTCCCGGTAATCCGTATTTGGA (site CTACTAACTTC) — lower, 0.0192
- CTACCATCATGGACCGGTTTTCCCGGTAATCCGTATTTGCT (site CGATCATCTAG) — lower, 0
- CTACCATCATGGACCGGTTTTCCCGGTAATCCGTATTTGCT (site CTACCATCTAG) — higher, 2.35
- CTACCCGCATGGACCGGTTTTCCCGGTAATCCGTATTTGCT (site CTACCCGCTAG) — within 0.2 log units, 1.43
- CTACGCACATGGACCGGTTTTCCCGGTAATCCGTATTTGAG (site CTACGCACTCT) — lower, 1.29
- CTACGCTCATGGACCGGTTTTCCCGGTAATCCGTATTTGAT (site CTACGCTCTAT) — higher, 2.86
- CTACTAACATGGACCGGTTTTCCCGGTAATCCGTATTTGTA (site CTACTAACTTA) — higher, 2.03
- CTACTAACATGGACCGGTTTTCCCGGTAATCCGTATTTGTA (site CTACTAACTTC) — lower, 0.53
- CTACTAACATGGACCGGTTTTCCCGGTAATCCGTATTTGTA (site CTACTAACTTG) — within 0.2 log units, 1.51
- CTACTAACATGGACCGGTTTTCCCGGTAATCCGTATTTGTA (site CTACTAACTTT) — higher, 1.92
- CTACTCACATGGACCGGTTTTCCCGGTAATCCGTATTTGGG (site CTACTCACTCC) — lower, 0.286
- CTACTCCCATGGACCGGTTTTCCCGGTAATCCGTATTTGGC (site CTACTCCCTGC) — within 0.2 log units, 1.59
- CTACTCTCATGGACCGGTTTTCCCGGTAATCCGTATTTGTA (site CTACTCTCTTA) — higher, 3.26
- CTACTCTCATGGACCGGTTTTCCCGGTAATCCGTATTTGTA (site CTCCTCTCTTA) — lower, 1.19
- CTACTCTCATGGACCGGTTTTCCCGGTAATCCGTATTTGTA (site CTGCTCTCTTA) — lower, 1.32
- CTACTCTCATGGACCGGTTTTCCCGGTAATCCGTATTTGTA (site CTTCTCTCTTA) — within 0.2 log units, 1.42
- CTACTGTCATGGACCGGTTTTCCCGGTAATCCGTATTTGTA (site CTACTGTCTTA) — higher, 3.13
